In brackets after ≈: the same amount, converted by molar mass.
Tests used:
[1] = cited from earlier work
[2] = Solubility of benomyl from various materials incl. Fundazol under the effect of β-cyclodextrin; type: physicochemical
Procedure: Benomyl is put on the market under the commercial name Fundazol 50 WP; benomyl active ingredient content: 50%. In Table 3 the solubility data of benomyl, a mixture of benomyl and cyclodextrin, Fundazol 50 WP, and a mixture of Fundazol 50 WP and cyclodextrin are shown. In each experiment […] of the test substance are weighed in and shaken at 25° C. Benomyl is a 100% active ingredient; the benomyl content of the benomyl/cyclodextrin mixture amounts to 17.3%; the benomyl content of Fundazol 50 WP is 50%; the benomyl content of the mixture of Fundazol 50 WP and cyclodextrin amounts to 8.65%.
2000 μg/ml of solid material are weighed in which corresponds to the following amounts of benomyl:
in the case of benomyl: 2000 μg/ml
in the case of benomyl+β-CD: 350 μg/ml++1650 μg β-CD
in the case of Fundazol 50 WP: 1000 μg/ml
in the case of Fundazol 50 WP+β-CD: 175 μg/ml++1650 μg β-CD.

[3] = Solubility of benomyl under the effect of β-cyclodextrin (shaking in water, UV); type: physicochemical; conditions: water 25° C.; for solubility thermodynamic at 10 min / solubility thermodynamic at 20 min / solubility thermodynamic at 40 min / solubility thermodynamic at 80 min / solubility thermodynamic at 2 h: water, read-out: Amount of dissolved benomyl
Procedure: (Benomyl and benomyl+β-cyclodextrin, respectively, are shaken in water at 25° C., the samples are filtered and the dissolved benomyl contents of the filtrates are determined by UV spectrophotometry).

[4] = cited from earlier work; for volatility of the active ingredient: on forming complexes with cyclodextrin
[5] = test system: wheat powdery mildew; assay: In vivo test on wheat-powdery mildew (host-parasite)
Procedure: In vivo tests are carried out on wheat-powdery mildew (host-parasite) by using a combination of phenarimol [2,4'-dichloro-α--(pyrimidine-5-yl)-diphenyl-ethanol] and β-cyclodextrin. The tests are carried out in three replicates in phytotrone under usual experimental system and environmental conditions (20° C., humidity 90%, light intensity 9000 lux.) In culturing dishes (diameter 11 cm) as average 160 plants (5-6 cm stage) are treated with 8 ml of stable aqueous suspensions comprising the test material. The inhibition activity is calculated on the basis of the Hinfner-Papp formula by using the infectedness index.

[6] = test system: test fungi; assay: Fungicidal activity of metomeclan with cyclodextrin, general statement; type: cell-based
Procedure: The following tests substantiate the surprising synergism between known fungicides and β-cyclodextrin. Stable, highly dispersed aqueous suspensions of the test materials are added to agar nutrient media in the desired concentration (0.1-200 μg/ml), whereupon the nutrient media are poured into Petri-dishes. Mycelium discs are cut out from the surfacial cultures of the test fungi and the discs are placed into the Petri-dishes containing the test materials. Incubation is carried out in thermostate whereupon the increase of the diameter of the colonies is measured and compared to that of the control. The tests are carried out in three replicates.

[7] = cited from earlier work; for duration of pesticide activity: on forming complexes with cyclodextrin
[8] = test system: Alternaria tenuis; assay: Fungistatical effect of β-cyclodextrin (agar, colony diameter); type: cell-based; conditions: Alternaria alternata
Procedure: (§1) The fungistatical activity of cyclodextrins has never been disclosed in prior art.
(§2) Agar nutrient media comprising 0.1-0.2 -0.5-1.0-2.0-5.0-10.0-20.0-100.0- 200.0-400.0-800.0-1200.0-1500.0-2000.0-3000.0 μg β-cyclodextrin/ml, respectively, are prepared in Petri-dishes. Mycelium discs are cut out from surface cultures of three test fungi and are placed onto the agar nutrient media in the Petri-dishes. Incubation is carried out in a thermostate whereupon the increase of the diameter of the colonies is determined and compared to that of the control. The morphology of the colonies and the diffusion of the dye-substance produced by the fungi into the nutrient medium are evaluated as well.
(§3) The fungistatical effect of cyclodextrin manifests itself in the changed morphology, structure and color of the colonies and in the amount of the dyestuff penetrated into the nutrient medium. However at higher dose range the effect of cyclodextrin is already of a quantitative nature, thus the decrease of the diameter of the colonies can be measured and the amount of the biomass formed is reduced to a rate which can be evaluated (Table 1).

[9] = test system: Rhizoctonia solani; assay: as above; type: cell-based
Procedure: as §1, §2, §3

[10] = test system: Sclerotinia sclerotiorum; assay: as above; type: cell-based
Procedure: as §1, §2, §3

[11] = test system: three test fungi; assay: Fungistatical effect of β-cyclodextrin, morphology and surfacial cultures; type: cell-based; conditions: surfacial cultures
Procedure: as §2, §3

[12] = 10 minutes, weighed in 1000 μg/ml benomyl, or 170 μg benomyl + 830 μg/ml β-CD
[13] = 10 minutes, weighed in 5000 μg/ml benomyl, or 850 μg benomyl + 4150 μg/ml β-CD
[14] = 20 minutes, weighed in 1000 μg/ml benomyl, or 170 μg benomyl + 830 μg/ml β-CD
[15] = 20 minutes, weighed in 5000 μg/ml benomyl, or 850 μg benomyl + 4150 μg/ml β-CD
[16] = 40 minutes, weighed in 1000 μg/ml benomyl, or 170 μg benomyl + 830 μg/ml β-CD
[17] = 40 minutes, weighed in 5000 μg/ml benomyl, or 850 μg benomyl + 4150 μg/ml β-CD
[18] = 80 minutes, weighed in 1000 μg/ml benomyl, or 170 μg benomyl + 830 μg/ml β-CD
[19] = 80 minutes, weighed in 5000 μg/ml benomyl, or 850 μg benomyl + 4150 μg/ml β-CD
[20] = 120 minutes, weighed in 1000 μg/ml benomyl, or 170 μg benomyl + 830 μg/ml β-CD
[21] = 120 minutes, weighed in 5000 μg/ml benomyl, or 850 μg benomyl + 4150 μg/ml β-CD

In the case of COC(=O)Nc1nc2ccccc2[nH]1 [methyl-benzimidazole carbamate, 2-carbomethoxyamino-benzimidazole], the solubility in water [1] is listed as “still less soluble in water”.
Molecule CCCCNC(=O)n1c(NC(=O)OC)nc2ccccc21 [benomyl, 1-butylcarbamoyl-benzimidazole-2-methyl-carbamate] has a solubility thermodynamic at 10 min ([2]; 10 minutes, shaking in water at 25° C., read-out: Dissolved benomyl) of 2 µg/mL (≈ 6.89 µM), a solubility thermodynamic at 20 min ([2]; 20 minutes, shaking in water at 25° C., read-out: Dissolved benomyl) of 5 µg/mL (≈ 17.2 µM) and a solubility thermodynamic at 40 min ([2]; 40 minutes, shaking in water at 25° C., read-out: Dissolved benomyl) of 6 µg/mL (≈ 20.7 µM). The solubility thermodynamic at 80 min ([2]; 80 minutes, shaking in water at 25° C., read-out: Dissolved benomyl) was 7 µg/mL (≈ 24.1 µM), the solubility thermodynamic at 2 h ([2]; 120 minutes, shaking in water at 25° C., read-out: Dissolved benomyl) was 8 µg/mL (≈ 27.6 µM) and the solubility thermodynamic at 160 min ([2]; 160 minutes, shaking in water at 25° C., read-out: Dissolved benomyl) was 9 µg/mL (≈ 31 µM). The “further increase of the solubility caused by cyclodextrin” value ([2]; on addition of cyclodextrin, water 25° C.) was 1.5-2 -fold, the “Amount of dissolved benomyl, %” value [3, 12] was 0.2% and the “Amount of dissolved benomyl, %” value [3, 13] was 0.07%. The “Amount of dissolved benomyl, %” value [3, 14] was 0.3%, the “Amount of dissolved benomyl, %” value [3, 15] was 0.08% and the “Amount of dissolved benomyl, %” value [3, 16] was 0.45%. The “Amount of dissolved benomyl, %” value [3, 17] was 0.12%, the “Amount of dissolved benomyl, %” value [3, 18] was 0.5% and the “Amount of dissolved benomyl, %” value [3, 19] was 0.16%. The “Amount of dissolved benomyl, %” value [3, 20] was 0.5%, the “Amount of dissolved benomyl, %” value [3, 21] was 0.19% and the solubility thermodynamic at 10 min [3, 12] was 2 µg/mL. It also gave a solubility thermodynamic at 10 min [3, 13] of 3.5 µg/mL, a solubility thermodynamic at 20 min [3, 14] of 3 µg/mL and a solubility thermodynamic at 20 min [3, 15] of 4 µg/mL. The solubility thermodynamic at 40 min [3, 16] was 4.5 µg/mL, the solubility thermodynamic at 40 min [3, 17] was 6 µg/mL and the solubility thermodynamic at 80 min [3, 18] was 5 µg/mL. For the same molecule, the solubility thermodynamic at 80 min [3, 19] was 8 µg/mL, the solubility thermodynamic at 2 h [3, 20] was 5 µg/mL and the solubility thermodynamic at 2 h [3, 21] was 9.5 µg/mL. For the same molecule, the “decomposition when dissolved in water” value ([1]; to methyl-benzimidazole carbamate) was “rapidly decomposes” and the solubility in water [1] was “poorly soluble in water”.
For COP(=S)(OC)Oc1ccc([N+](=O)[O-])cc1 [Methyl-parathion, 0,0-dimethyl-0-4-nitrophenyl-phosphorothioate], the “stability against light and oxygen” value ([4]; cyclodextrin complexes) is listed as “increase the stability against light and oxygen to a considerable extent”.
Work on OC(c1ccc(Cl)cc1)(c1cncnc1)c1ccccc1Cl (stereo not drawn) [Phenarimol, 2,4'-dichloro-α-(pyrimidine-5-yl)--diphenyl-methanol] yielded an Inhibition activity % ([5]; phenarimol concentration 0.625 μg/ml) of 29.4%, an Inhibition activity % ([5]; phenarimol concentration 1.25 μg/ml) of 73.5% and an Inhibition activity % ([5]; phenarimol concentration 2.5 μg/ml) of 87.2%. The Inhibition activity % ([5]; phenarimol concentration 5 μg/ml) was 99.4% and the Inhibition activity % ([5]; phenarimol concentration 10 μg/ml) was 100.0%.
For COCC1CC(=O)N(c2cc(Cl)cc(Cl)c2)C1=O (centres unmarked) [Metomeclan, 1-(3,5-dichlorophenyl)-3-methoxymethyl-pyrrolidine-2,5-dione], the “activity on addition of cyclodextrin (in words)” value [6] is listed as “significantly increased” and the solubility in water [1] is listed as “insoluble in water”.
In the case of CCSC(=O)N1CCCCCC1 [molinate, S-ethyl-N,N-hexamethylene-thiocarbamate], the “duration of pesticide activity” value [7] is given as “remains sufficient for a longer period of time” and the “volatility of the active ingredient” value [4] is given as “significantly decreased”.
In the case of O=P(O)(O)CCCl, the “ethylene release on contacting with plant tissue” value ([7]; complex with cyclodextrin) is listed as “long-lasting process”.
In the case of CCN(CC)C(=O)SCc1ccc(Cl)cc1 [bentiocarb, S-4-chlorobenzyl-diethylthio carbamate], the “duration of pesticide activity” value [7] is listed as “remains sufficient for a longer period of time” and the “volatility of the active ingredient” value [4] is listed as “significantly decreased”.
Work on OC[C@H]1O[C@@H]2O[C@H]3[C@H](O)[C@@H](O)[C@@H](O[C@H]4[C@H](O)[C@@H](O)[C@@H](O[C@H]5[C@H](O)[C@@H](O)[C@@H](O[C@H]6[C@H](O)[C@@H](O)[C@@H](O[C@H]7[C@H](O)[C@@H](O)[C@@H](O[C@H]8[C@H](O)[C@@H](O)[C@@H](O[C@H]1[C@H](O)[C@H]2O)O[C@@H]8CO)O[C@@H]7CO)O[C@@H]6CO)O[C@@H]5CO)O[C@@H]4CO)O[C@@H]3CO [β-cyclodextrin] yielded an inhibition at 200 µg/mL ([8]; β-cyclodextrin 200 μg/ml) of 7%, an inhibition at 400 µg/mL ([8]; β-cyclodextrin 400 μg/ml) of 10% and an inhibition at 1500 µg/mL ([8]; β-cyclodextrin 1500 μg/ml) of 12%. It also gave an inhibition at 3000 µg/mL ([8]; β-cyclodextrin 3000 μg/ml) of 14%, an inhibition at 200 µg/mL ([9]; β-cyclodextrin 200 μg/ml) of 3% and an inhibition at 400 µg/mL ([9]; β-cyclodextrin 400 μg/ml) of 6%. The inhibition at 1500 µg/mL ([9]; β-cyclodextrin 1500 μg/ml) was 17%, the inhibition at 3000 µg/mL ([9]; β-cyclodextrin 3000 μg/ml) was 19% and the inhibition at 200 µg/mL ([10]; β-cyclodextrin 200 μg/ml) was 12%. The inhibition at 400 µg/mL ([10]; β-cyclodextrin 400 μg/ml) was 12%, the inhibition at 1500 µg/mL ([10]; β-cyclodextrin 1500 μg/ml) was 14% and the inhibition at 3000 µg/mL ([10]; β-cyclodextrin 3000 μg/ml) was 16%. The “formation of the propagative organs” value [11] was “inhibits the formation of the propagative organs”.
For N#Cc1c(Cl)cccc1Cl [dichlobenyl, 2,6-dichloro-benzonitrile], the sublimation ([4]; uncomplexed, inhibited by forming complex with cyclodextrin) is given as “easily sublimates”.
For COP(=O)(OC)OC=C(Cl)Cl [dichlorphos, 2,2--dichlorovinyl-dimethyl-phosphate], the “duration of pesticide activity” value [7] is listed as “remains sufficient for a longer period of time” and the “volatility of the active ingredient” value [4] is listed as “significantly decreased”.
